Assay results published in article PMC6570502 (Chembiochem : a European journal of chemical biology, 2019).

Molecular target: T1, KDM4A N198G mutant (Homo sapiens, UniProt O75164, N198G)
T1 sequence (O75164 1-1064 N198G): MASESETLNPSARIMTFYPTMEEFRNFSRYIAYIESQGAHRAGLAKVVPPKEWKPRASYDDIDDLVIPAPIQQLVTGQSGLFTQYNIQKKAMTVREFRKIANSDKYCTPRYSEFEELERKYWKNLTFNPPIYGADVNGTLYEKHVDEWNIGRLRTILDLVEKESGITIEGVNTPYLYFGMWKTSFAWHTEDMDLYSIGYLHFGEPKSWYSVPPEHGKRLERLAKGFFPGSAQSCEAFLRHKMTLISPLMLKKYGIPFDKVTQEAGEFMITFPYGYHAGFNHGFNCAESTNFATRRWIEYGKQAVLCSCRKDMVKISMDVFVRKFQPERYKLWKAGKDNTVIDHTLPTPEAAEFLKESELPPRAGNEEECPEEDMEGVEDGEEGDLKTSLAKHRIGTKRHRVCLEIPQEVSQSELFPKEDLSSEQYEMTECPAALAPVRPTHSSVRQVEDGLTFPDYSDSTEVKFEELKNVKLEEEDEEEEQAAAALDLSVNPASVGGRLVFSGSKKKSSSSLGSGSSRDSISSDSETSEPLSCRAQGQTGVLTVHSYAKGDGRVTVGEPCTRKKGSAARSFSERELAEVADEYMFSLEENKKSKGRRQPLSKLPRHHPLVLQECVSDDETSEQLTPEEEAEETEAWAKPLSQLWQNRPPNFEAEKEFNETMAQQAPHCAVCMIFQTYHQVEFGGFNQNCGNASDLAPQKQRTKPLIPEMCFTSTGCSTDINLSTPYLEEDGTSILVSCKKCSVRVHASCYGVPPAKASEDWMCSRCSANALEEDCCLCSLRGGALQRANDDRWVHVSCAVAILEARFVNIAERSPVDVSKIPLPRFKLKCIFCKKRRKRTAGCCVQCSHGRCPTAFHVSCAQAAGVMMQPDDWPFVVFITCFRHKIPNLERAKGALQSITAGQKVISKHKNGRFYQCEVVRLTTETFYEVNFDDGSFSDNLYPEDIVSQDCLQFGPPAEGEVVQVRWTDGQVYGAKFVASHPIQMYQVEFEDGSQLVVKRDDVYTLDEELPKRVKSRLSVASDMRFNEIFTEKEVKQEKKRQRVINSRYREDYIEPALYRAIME
Test: MALDI demethylase assay, H3K9me3 substrate peptide, N198G mutant
Format: biochemical

[1] = scaffold test under the optimized assay conditions (50 μM 2KG), Figure S7

inhibition of demethylase activity [1] | inhibition of demethylase activity (100 μM compound, 50 μM 2KG, MALDI-MS) | SMILES
inhibited |  | O=C(O)c1ccc(O)c2ncccc12 [IOX1, 5-carboxy-8-hydroxyquinone]
inhibited | significantly inhibited | O=C(O)CNC(=O)C(=O)O [compound 2, N-oxalylglycine]
